Measurements: patent publication US7816389B2, “Organic compounds” (Nabriva Therapeutics Forschungs GmbH, priority 2006, dated 2010)
In brackets after ≈: the same amount, converted by molar mass.

Columns and labels:
Assay type in all cases: cell-based
[1] = test system: Enterococcus faecalis ATCC29212 B4; assay: MIC determination according to CLSI; conditions: ATCC29212, strain B4
Text: (§1) For example, the compounds of the present invention show antimicrobial, e.g. antibacterial, activity against gram positive bacteria, such as coagulase-positive and coagulase-negative Staphylococci, e.g. Staphylococcus aureus, Styphylococcus epidermis, Staphylococcus haemolyticus, Streptococci, e.g. Streptococcus pyogenes, Streptococcus pneumoniae, Streptococcus agalacticae, Enterococci, e.g. Enterococcus faecium and Moraxellaceae, e.g. Moraxella catarrhalis, Pasteurellaceae, e.g. Haemophilus influenzae, as well as against Mycoplasmactaceae, Chlamydiaceae, e.g. Chlamydia trachomatis, Chlamydia pneumoniae and obligatory anaerobes, e.g. Bacteroides fragilis, Clostridium difficile; in vitro in the Agar Dilution Test or Microdilution Test according to the Climical and Laboratory Standards Institute (CLSI, former National Commitee for Clinical Laboratory Standards (NCCLS) 2006, Document M7-A7 Vol. 26, No. 2: “Methods for dilution Antimicrobial Susceptibility Tests for Bacteria that Grow Aerobically—Seventh Edition, Approved Standard”; and in the in vitro determination of the antibacterial activity against anaerobic bacteria according to National Committee for Clinical Laboratory Standards (NCCLS) VOL. 24, No. 2, M11-A5, Methods for Antimicrobal Susceptibility Testing of Anaerobic Bacteria; Approved Standard; Sixth Edition (2004) and in vivo in the septicaemic mouse model against Staphylococcus aureus.
(§2) The antibacterial activity expressed as minimal inhibitory concentration (MIC) was determined according to the approved standard reference recommendations of CLSI (former NCCLS).

[2] = test system: Enterococcus faecalis ATCC51299 B5; assay: MIC determination according to CLSI; conditions: ATCC51299, strain B5
Text: as §1, §2

[3] = test system: Escherichia coli ATCC25922 B1; assay: MIC determination according to CLSI; conditions: ATCC25922, strain B1
Text: as §1, §2

[4] = test system: Moraxella catarrhalis ATCC43618 B407; assay: MIC determination according to CLSI; conditions: ATCC43618, strain B407
Text: as §1, §2

[5] = test system: Staphylococcus aureus (MSSA) ATCC10390 B6; assay: MIC determination according to CLSI; conditions: ATCC10390, strain B6
Text: as §1, §2

[6] = test system: Staphylococcus aureus (MSSA) ATCC29213 B7; assay: MIC determination according to CLSI; conditions: ATCC29213, strain B7
Text: as §1, §2

[7] = test system: Streptococcus pneumoniae ATCC49619 B11; assay: MIC determination according to CLSI; conditions: ATCC49619, strain B11
Text: as §1, §2

[8] = test system: Staphylococcus aureus, Enterococcus faecalis, Streptococcus pneumoniae, Moraxelia catarrhalis and Escherichia coli; assay: MIC determination according to CLSI, panel of pathogens
Experimental: as §2

MIC [1] [µg/mL] | MIC [2] [µg/mL] | MIC [3] [µg/mL] | MIC [4] [µg/mL] | MIC [5] [µg/mL] | MIC [6] [µg/mL] | MIC [7] [µg/mL] | factor by which MICs are lower than the MICs of Example 2 ([8]; against at least one of the strains shown in Table 1) | Structure (SMILES) | antibacterial activity (in vitro) ([8]; against at least one of the clinical relevant bacterial pathogens)
6.4 (≈ 12.8 µM) | 6.4 (≈ 12.8 µM) | 12.8 (≈ 25.6 µM) | ≤ 0.0125 | ≤ 0.0125 | ≤ 0.0125 | 0.01 (≈ 0.02 µM) | ≥ 2 | C=C[C@]1(C)C[C@@H](OC(=O)CSc2cccc(CO)c2)[C@]2(C)C(C)CCC3(CCC(=O)C32)[C@@H](C)[C@@H]1O (stereo partly shown) [Example 1, 14-O-[(3-Hydroxymethyl-phenylsulfanyl)-acetyl]-mutilin] | very good activity
> 25.6 | > 25.6 | > 25.6 | ≤ 0.0125 | 0.025 (≈ 0.0516 µM) | 0.025 (≈ 0.0516 µM) | 0.16 (≈ 0.33 µM) |  | C=C[C@]1(C)C[C@@H](OC(=O)CSc2ccc(C)cc2)[C@]2(C)C(C)CCC3(CCC(=O)C32)[C@@H](C)[C@@H]1O (stereo partly shown) [Example 2, 14-O-[(4-Methyl-phenylsulfanyl)-acetyl]-mutilin, reference compound] | 
